Data reported in article PMC10673995, “Discovery of a novel cardiac-specific myosin modulator using artificial intelligence-based virtual screening” (Nature Communications, 2023).
Values joined by “and” are separate entries in the source; they are usually repeats but may differ in a detail not shown here. Equal entries are not always repeated.

Target: bovine cardiac myofibrils (Bos taurus, UniProt Q9BE39)
Experiment: mant-ATP chase single nucleotide turnover, cardiac myofibrils;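 also: bovine cardiac myofibrils at 1 mg/mL in PIPES buffer, 20 µM mant-ATP aged 1 min then chased with 20 mM ATP, fluorescence (ex 360, em 450 nm) read every second for 15 min at 25 °C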
[1] = Cardiac myofibrils, individual replicates

Chain of bovine cardiac myofibrils (Q9BE39 whole entry): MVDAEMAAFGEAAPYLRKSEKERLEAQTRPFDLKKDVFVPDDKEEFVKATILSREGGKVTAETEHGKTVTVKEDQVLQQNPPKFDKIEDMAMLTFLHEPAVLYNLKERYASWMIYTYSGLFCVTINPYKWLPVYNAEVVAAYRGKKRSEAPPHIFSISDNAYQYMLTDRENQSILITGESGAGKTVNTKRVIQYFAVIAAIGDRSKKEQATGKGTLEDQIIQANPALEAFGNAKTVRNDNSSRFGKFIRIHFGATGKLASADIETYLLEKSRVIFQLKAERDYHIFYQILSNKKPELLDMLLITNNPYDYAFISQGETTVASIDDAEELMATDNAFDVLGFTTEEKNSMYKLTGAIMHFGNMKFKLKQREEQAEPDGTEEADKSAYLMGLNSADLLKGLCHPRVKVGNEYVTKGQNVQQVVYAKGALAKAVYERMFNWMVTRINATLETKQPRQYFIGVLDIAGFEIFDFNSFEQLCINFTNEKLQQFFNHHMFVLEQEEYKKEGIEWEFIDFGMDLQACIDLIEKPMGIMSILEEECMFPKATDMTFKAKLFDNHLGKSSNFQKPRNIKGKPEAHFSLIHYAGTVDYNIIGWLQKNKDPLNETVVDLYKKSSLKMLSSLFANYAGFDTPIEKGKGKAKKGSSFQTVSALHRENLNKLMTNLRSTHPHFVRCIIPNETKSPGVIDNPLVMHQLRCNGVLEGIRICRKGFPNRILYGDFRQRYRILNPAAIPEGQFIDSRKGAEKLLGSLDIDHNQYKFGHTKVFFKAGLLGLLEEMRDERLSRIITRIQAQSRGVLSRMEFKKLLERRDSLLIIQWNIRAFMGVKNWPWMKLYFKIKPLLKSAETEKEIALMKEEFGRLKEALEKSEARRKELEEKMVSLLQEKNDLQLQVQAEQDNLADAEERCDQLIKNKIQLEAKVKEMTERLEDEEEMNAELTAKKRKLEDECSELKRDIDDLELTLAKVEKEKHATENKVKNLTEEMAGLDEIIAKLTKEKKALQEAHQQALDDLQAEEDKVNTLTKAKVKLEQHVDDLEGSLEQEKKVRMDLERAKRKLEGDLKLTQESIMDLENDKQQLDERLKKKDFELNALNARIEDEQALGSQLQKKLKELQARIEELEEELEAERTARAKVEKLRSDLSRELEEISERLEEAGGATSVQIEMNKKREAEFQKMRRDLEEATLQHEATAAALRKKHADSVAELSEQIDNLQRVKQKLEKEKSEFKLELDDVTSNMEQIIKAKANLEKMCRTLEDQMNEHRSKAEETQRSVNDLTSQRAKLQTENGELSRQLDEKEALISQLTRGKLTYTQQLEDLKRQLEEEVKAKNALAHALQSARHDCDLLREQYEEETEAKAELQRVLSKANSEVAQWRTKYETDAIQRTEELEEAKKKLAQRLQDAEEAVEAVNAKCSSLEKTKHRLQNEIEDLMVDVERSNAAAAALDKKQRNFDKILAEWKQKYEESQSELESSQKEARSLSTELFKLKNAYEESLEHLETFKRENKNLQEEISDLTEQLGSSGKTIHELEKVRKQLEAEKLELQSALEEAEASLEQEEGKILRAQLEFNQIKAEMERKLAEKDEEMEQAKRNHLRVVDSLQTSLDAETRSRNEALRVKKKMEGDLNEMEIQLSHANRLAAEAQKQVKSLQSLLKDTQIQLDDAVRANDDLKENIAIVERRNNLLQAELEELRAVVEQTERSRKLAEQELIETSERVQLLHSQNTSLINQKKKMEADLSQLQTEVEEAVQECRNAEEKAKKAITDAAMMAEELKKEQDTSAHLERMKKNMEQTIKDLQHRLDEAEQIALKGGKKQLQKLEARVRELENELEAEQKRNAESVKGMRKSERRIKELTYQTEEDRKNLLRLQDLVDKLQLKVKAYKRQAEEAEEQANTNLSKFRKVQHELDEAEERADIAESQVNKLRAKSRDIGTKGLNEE
Chain of bovine cardiac myofibrils (P85100 whole entry partner): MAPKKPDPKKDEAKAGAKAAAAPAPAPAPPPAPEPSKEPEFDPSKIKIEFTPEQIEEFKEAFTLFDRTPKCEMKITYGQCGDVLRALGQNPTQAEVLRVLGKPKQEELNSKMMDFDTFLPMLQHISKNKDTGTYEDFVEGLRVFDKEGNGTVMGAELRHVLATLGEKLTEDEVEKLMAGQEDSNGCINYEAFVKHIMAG
Chain of bovine cardiac myofibrils (Q3SZE5 whole entry partner): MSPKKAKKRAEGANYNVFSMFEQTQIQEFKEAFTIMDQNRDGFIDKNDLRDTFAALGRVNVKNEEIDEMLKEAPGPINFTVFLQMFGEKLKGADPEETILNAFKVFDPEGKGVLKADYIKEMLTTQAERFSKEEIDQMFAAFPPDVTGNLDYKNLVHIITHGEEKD

SMILES: CC(C)n1c(=O)cc(N[C@@H](C)c2ccccc2)[nH]c1=O [Mavacamten]
- effect on the rate of the fast phase: no effect
- kfast (2 μmol L^−1 Mavacamten or 20 μmol L^−1 F10, control 0.0719 ± 0.0193): 0.0637 ± 0.0271 s⁻¹
- kfast [1]: 0.1448 s⁻¹ and 0.0188 s⁻¹ and 0.01818 s⁻¹ and 0.1128 s⁻¹ and 0.02375 s⁻¹
- kslow [1]: 0.005449 s⁻¹ and 0.0002437 s⁻¹ and 0.001429 s⁻¹ and 0.00295 s⁻¹ and 0.003851 s⁻¹
- slow phase [1]: 76.35% and 29.71% and 40.4% and 38.11% and 48.47%
- Bar graph (Figure 3c, individual replicates): 76.35 and 29.71 and 40.4 and 38.11 and 48.47
- Representative Traces (t [s] = 6): 0.8107
- Representative Traces (t [s] = 7): 0.8334
- Representative Traces (t [s] = 8): 0.8024
- Representative Traces (t [s] = 9): 0.8319
- Representative Traces (t [s] = 10): 0.793
- Representative Traces (t [s] = 11): 0.7299
- Representative Traces (t [s] = 12): 0.7382
- Representative Traces (t [s] = 13): 0.7429
- Representative Traces (t [s] = 14): 0.7007
- Representative Traces (t [s] = 96): 0.4149
- Representative Traces (t [s] = 97): 0.3828
- Representative Traces (t [s] = 98): 0.3883
- Representative Traces (t [s] = 99): 0.382
- Representative Traces (t [s] = 100): 0.393
- Representative Traces (t [s] = 101): 0.411
- Representative Traces (t [s] = 102): 0.3936
- Representative Traces (t [s] = 103): 0.355
- Representative Traces (t [s] = 104): 0.403
- Representative Traces (t [s] = 105): 0.3774
- Representative Traces (t [s] = 106): 0.4119
- Representative Traces (t [s] = 107): 0.4038
- Representative Traces (t [s] = 108): 0.3884
- Representative Traces (t [s] = 109): 0.3828
- Representative Traces (t [s] = 110): 0.3991
- Representative Traces (t [s] = 111): 0.3974
- Representative Traces (t [s] = 112): 0.3704
- Representative Traces (t [s] = 113): 0.3729
- Representative Traces (t [s] = 114): 0.3757
- Representative Traces (t [s] = 115): 0.3708
- Representative Traces (t [s] = 116): 0.3829
- Representative Traces (t [s] = 117): 0.3692
- Representative Traces (t [s] = 118): 0.3929
- Representative Traces (t [s] = 119): 0.3896
- Representative Traces (t [s] = 120): 0.34
- Representative Traces (t [s] = 121): 0.3562
- Representative Traces (t [s] = 122): 0.3276
- Representative Traces (t [s] = 123): 0.3379
- Representative Traces (t [s] = 124): 0.3372
- Representative Traces (t [s] = 125): 0.3385
- Representative Traces (t [s] = 126): 0.3527
- Representative Traces (t [s] = 127): 0.3498
- Representative Traces (t [s] = 128): 0.3795
- Representative Traces (t [s] = 129): 0.3503
- Representative Traces (t [s] = 130): 0.3889
- Representative Traces (t [s] = 131): 0.3403
- Representative Traces (t [s] = 132): 0.3551
- Representative Traces (t [s] = 133): 0.3408
- Representative Traces (t [s] = 134): 0.3174
- Representative Traces (t [s] = 135): 0.3637
- Representative Traces (t [s] = 136): 0.3269
- Representative Traces (t [s] = 137): 0.3446
- Representative Traces (t [s] = 138): 0.322
- Representative Traces (t [s] = 140): 0.3437
- Representative Traces (t [s] = 141): 0.3145
- Representative Traces (t [s] = 142): 0.3341
- Representative Traces (t [s] = 143): 0.3342
- Representative Traces (t [s] = 144): 0.3241
- Representative Traces (t [s] = 145): 0.353
- Representative Traces (t [s] = 146): 0.3167
- Representative Traces (t [s] = 147): 0.3169
- Representative Traces (t [s] = 150): 0.3343
- Representative Traces (t [s] = 151): 0.3323
- Representative Traces (t [s] = 152): 0.3258
- Representative Traces (t [s] = 153): 0.3279
- Representative Traces (t [s] = 154): 0.3292
- Representative Traces (t [s] = 155): 0.3236
- Representative Traces (t [s] = 156): 0.3153
- Representative Traces (t [s] = 157): 0.312
- Representative Traces (t [s] = 158): 0.3484
- Representative Traces (t [s] = 159): 0.3282
- Representative Traces (t [s] = 160): 0.2877
- Representative Traces (t [s] = 161): 0.3298
- Representative Traces (t [s] = 162): 0.3159
- Representative Traces (t [s] = 164): 0.2984
- Representative Traces (t [s] = 165): 0.3474
- Representative Traces (t [s] = 166): 0.3344
- Representative Traces (t [s] = 167): 0.3033
- Representative Traces (t [s] = 168): 0.3319
- Representative Traces (t [s] = 169): 0.3401
- Representative Traces (t [s] = 170): 0.3298
- Representative Traces (t [s] = 171): 0.3174
- Representative Traces (t [s] = 172): 0.335
- Representative Traces (t [s] = 173): 0.2879
- Representative Traces (t [s] = 174): 0.2744
- Representative Traces (t [s] = 175): 0.3144
- Representative Traces (t [s] = 177): 0.3003
- Representative Traces (t [s] = 180): 0.3087
- Representative Traces (t [s] = 181): 0.2965
- Representative Traces (t [s] = 182): 0.2814
- Representative Traces (t [s] = 183): 0.3178
- Representative Traces (t [s] = 184): 0.3078
- Representative Traces (t [s] = 185): 0.2721
- Representative Traces (t [s] = 186): 0.3115
- Representative Traces (t [s] = 187): 0.2704
- Representative Traces (t [s] = 188): 0.2836
- Representative Traces (t [s] = 189): 0.2816
- Representative Traces (t [s] = 190): 0.2901
- Representative Traces (t [s] = 191): 0.3081
- Representative Traces (t [s] = 192): 0.2598
- Representative Traces (t [s] = 193): 0.2745
